Experimental data published in patent US6090542A, “Process for inhibiting the transcription of genes” (Boehringer Ingelheim International GmbH, priority 1993, dated 2000).

Legend:
PKC = details: cited from earlier work
NF-KB = test: EMSA of NF-KB DNA binding activity in total cell extracts of stimulated 7OZ/3 cells; format: cell-based, mouse; details: PMA treated 7OZ/3 cells, 100 μM PDTC
Procedure: 7OZ/3 cells (ATCC No. TIB 158) were cultivated in RPMI-1640 medium (Gibco BRL), supplemented by 10% FCS (Gibco BRL) and 50 μM 2-mercaptoethanol. 2 ml aliquots with approx. 2-3×10^6 of suspended cells was treated with 50 ng/ml PMA (Sigma) for various periods. The treatment was interrupted by immediate centrifugation (5 s in an Eppendorf Microfuge) and cooling on ice. The cell pellets were lysed with 60 μl of a high-salt extraction buffer, containing the non-ionic detergent nonidet P-40 (Baeuerle and Baltimore, 1988b). The supernatant of a 15 minute centrifugation at 13.000 rpm in an Eppendorf Microfuge was analysed by Western blotting and EMSA (electrophoretic mobility shift assay). For SDS-PAGE and Western blotting 30 μl aliquots of the extracts were mixed with 15 μl SDS sample buffer (Laemmli, 1970), boiled and subjected to a SDS-PAGE on 12.5% polyacrylamide minigels (Biorad). The proteins were transferred by using a so-called semi-dry blotting device (Biorad; 1 h at 15V/2.5 mA/cm2) from the gels onto IMMOBILON-P-filter (0.45 μm; Millipore). The efficiency of the blot was checked by protein staining of the filters with Ponceau S (Serva). The filters were blocked overnight in a Tris-buffered saline solution, containing 0,1% (v/v) TWEEN-20 (TBST), 5% low-fat milk powder (Nestle) and 1% BSA. The filter was then incubated for one hour at ambient temperature with anti IkB-α IgG in a dialysed eluate of the IkB-α affinity column and diluted by 1:100 in the blocking buffer. After washing for 30 minutes in TBST the filter was incubated in a 1:4000 solution of goat-anti-rabbit IgG/horseradish-peroxidase conjugate (Biorad) in blocking buffer. After washing for 30 minutes in TBST the filter was treated with ECL detecting reagent (Amersham) and exposed (Kodak XR film, less than 1 minute). For EMSA 2 μl aliquots of the extracts were added to a binding mixture, resulting in a final concentration of […], […], pH 7.9, […] dithiothreitol, […] phenylmethylsulfonylfluoride (PMSF), 0.2% NONIDET P-40, 5% FICOLL, 20 μg BSA, 3 μg Poly (dl-dC) and 10.000 cpm (Cerenkov counting method) of a ^32 P marked double-stranded KB-oligonucleotide probe (Gibco BRL). The specificity of the protein DNA complex was confirmed by competition experiments and supershifting with a polyclonal antibody, recognising the C-terminal 100 amino acids of Rel-A (p65). After 20 minutes of incubation on ice the samples were subjected to electrophoresis on native 4% polyacrylamide gels, run in 0.5× TBE. The dried gels were exposed (Kodak XR film, -70° C., overnight).
Cell cultures, extract production, SDS-PAGE and Western blotting were carried out according to example 1. The cells were […] in 25 μm TPCK or TLCK (both from Sigma), and pre-treated in dimethylsulfoxide (DMSO). The control cultures received an equivalent amount of DMSO.
The results of the experiments are shown in FIG. 4: A: Effect of TPCK on the induction by PMA. The cells were treated without (left panel) or in presence of TPCK with PMA for the stipulated periods. The cell extracts were tested for the DNA binding activity of NF-KB using EMSA (top panel) and for the IkB-α protein quantity using Western blotting (bottom panel). The position of the NF-KB-DNA complex in a section of a fluorogram of a native gel is shown by a filled arrowhead. […] B: Effect of TPCK on the activation of NF-KB by IL-1β (I), LPS (L) and PMA (P) in 7OZ/3 cells; in control cells (Co). The cells were treated with TPCK for 10 minutes before stimulation (lanes 6-8) or for an additional 10 minutes after stimulation (lanes 10-12; 30 minutes with IL-1β and PMA or 60 minutes with LPS). The total cell extracts of control cells (lanes 1-4) and cells treated with TPCK (lanes 5-12) were tested for the DNA binding activity of NF-KB using EMSA; a section of a fluorogram of a native gel is shown. […] C: Effect of TLCK on the activation of NF-KB by PMA. […]

IkB-α = test: Western blotting of IkB-α in extracts of 7OZ/3 cells; format: cell-based, mouse; details: PMA treated 7OZ/3 cells, 100 μM PDTC

Compound: S=C(S)N1CCCC1 [PDTC, pyrrolidindithiocarbamate]
- interference with PMA induced membrane association and kinase activity of PKC (PKC): does not interfere
- activation of NF-KB binding activities (NF-KB): effectively suppressed
- degradation of IkB-α protein (Western blot) (IkB-α): no significant degradation
